# Measurements published in ChEMBL document CHEMBL2040836, “1,3,8-Triazaspiro[4.5]decane-2,4-diones as efficacious pan-inhibitors of hypoxia-inducible factor prolyl hydroxylase 1-3 (HIF PHD1-3) for the treatment of anemia” (J Med Chem, 2012).
# Columns and labels:
# [1] = Metabolic stability in rat liver microsomes assessed as compound remaining after 30 mins; format: ADME, Microsome; conditions: read-out: Stability
# Mus musculus [2] = assay: Toxicity in C57BL/6 mouse assessed as increase in liver ALT level at 50 mg/kg, iv; format: organism-based; set-up: dose 50 mg/kg, route intravenous; conditions: in vivo
# in vivo [3] = conditions: Sprague-Dawley, rat
# [4] = AUC in Sprague-Dawley rat; format: ADME, organism-based; set-up: concentration or dose not given beside the values; conditions: plasma
# in vivo [5] = conditions: Sprague-Dawley, rat, po
# in vivo [6] = conditions: Sprague-Dawley, rat; remark: listed apart in the source
# in vivo [7] = conditions: Sprague-Dawley, rat; remark: listed apart in the source
# in vivo [8] = conditions: Sprague-Dawley, rat; remark: listed apart in the source
# [9] = Cmax in mouse at 5 mg/kg, po; format: ADME, organism-based; set-up: dose 5 mg/kg, route oral; conditions: in vivo
# Mus musculus [10] = assay: Volume of distribution at steady state in mouse at 5 mg/kg, po; format: ADME, organism-based; set-up: dose 5 mg/kg, route oral; conditions: in vivo
# [11] = Oral bioavailability in mouse at 5 mg/kg; format: ADME, organism-based; conditions: in vivo
# [12] = Clearance in mouse at 5 mg/kg, po; format: ADME, organism-based; set-up: dose 5 mg/kg, route oral; conditions: in vivo
# [13] = (§1) Half life in mouse at 5 mg/kg, po; format: ADME, organism-based; set-up: dose 5 mg/kg, route oral; conditions: in vivo
# [14] = Toxicity in iv dosed C57BL/6 mouse assessed as no observable effect level; format: organism-based; conditions: in vivo
# Mus musculus [15] = assay: Toxicity in C57BL/6 mouse assessed as increase in liver ALT level at 15 mg/kg, iv; format: organism-based; set-up: dose 15 mg/kg, route intravenous; conditions: in vivo
# Mus musculus [16] = assay: as §1; format: ADME, organism-based; set-up: dose 5 mg/kg, route oral; conditions: in vivo
# [17] = Volume of distribution at steady state in dog; format: ADME, organism-based, Canis lupus familiaris; conditions: in vivo, read-out: Vdss
# [18] = Clearance in dog; format: ADME, organism-based, Canis lupus familiaris; conditions: in vivo
# [19] = Half life in dog; format: ADME, organism-based, Canis lupus familiaris; conditions: in vivo
# [20] = AUC in mouse at 5 mg/kg, po; format: ADME, organism-based; set-up: dose 5 mg/kg, route oral; conditions: plasma
# [21] = AUC in dog; format: ADME, organism-based, Canis lupus familiaris; conditions: plasma
# [22] = Cmax in dog; format: ADME, organism-based, Canis lupus familiaris; conditions: in vivo
# [23] = Oral bioavailability in dog; format: ADME, organism-based, Canis lupus familiaris; conditions: in vivo
SMILES,half-life (in vivo [3]),bioavailability (in vivo [5]),Vd (in vivo [6]),Cmax (in vivo [7]),clearance (in vivo [8]),also measured
Cn1ccnc1CN1CCC2(CC1)C(=O)N(c1cnc3ccccc3c1)c1ccccc12,–,–,–,–,–,remaining at 0.5 h [1]: < 10%
COc1cc(N2C(=O)N(c3ccc(-c4ccc(C(N)=O)cc4)cc3)C(=O)C23CCN(Cc2ncccc2C)CC3)ncn1,–,–,–,–,–,fold change (FC) (Mus musculus [2]): 6.6
Cc1cccnc1CN1CCC2(CC1)C(=O)N(c1ccc(-c3ccccc3)cc1)c1ncccc12,1.9 h,0%,8 L/kg,40 nM,59 mL/min/kg,AUC [4]: 0.6 µM·h
Cc1cccnc1CN1CCC2(CC1)NC(=O)N(c1ccc(-c3ccccc3)cc1)C2=O,0.12 h,42%,2.6 L/kg,17 nM,275 mL/min/kg,AUC [4]: 0.14 µM·h
COc1cc(N2C(=O)N(c3ccc(-c4ccc(C(=O)O)cc4)cc3)C(=O)C23CCN(Cc2ncccc2C)CC3)ncn1,2.6 h,92%,1.7 L/kg,1900 nM,8.8 mL/min/kg,Cmax [9]: 6100 nM; Vdss (Mus musculus [10]): 0.4 L/kg; bioavailability [11]: 36%; CL/F [12]: 1.2 mL/min/kg; half-life [13]: 3.7 h
Cc1cccnc1CN1CCC2(CC1)C(=O)N(c1ccc(-c3ccccc3)cc1)c1ccccc12,3 h,11%,8.2 L/kg,79 nM,30 mL/min/kg,AUC [4]: 1.2 µM·h
COc1cc(N2C(=O)N(c3ccc(-c4ccc(C(=O)O)cc4C)cc3)C(=O)C23CCN(Cc2ncccc2C)CC3)ncn1,4.1 h,64%,4.3 L/kg,570 nM,11.9 mL/min/kg,NOAEL [14]: 50 mg/kg
Cc1cccnc1CN1CCC2(CC1)C(=O)N(c1ccc(-c3ccccc3)cc1)C(=O)N2c1ccnc(O)n1,1.2 h,39%,0.9 L/kg,1300 nM,14 mL/min/kg,–
Cc1cccnc1CN1CCC2(CC1)C(=O)N(c1cnc3ccccc3c1)c1ccccc12,–,–,–,–,–,remaining at 0.5 h [1]: 35%
Cc1cccnc1CN1CCC2(CC1)C(=O)N(c1ccc(-c3ccc(C(=O)O)cc3)cc1)C(=O)N2c1ncccn1,1.1 h,18%,2.2 L/kg,100 nM,51 mL/min/kg,–
COc1cc(N2C(=O)N(c3ccc(-c4cccc(C(=O)O)c4)cc3)C(=O)C23CCN(Cc2ncccc2C)CC3)ncn1,–,–,–,–,–,fold change (FC) (Mus musculus [15]): 6.1
Cc1cccnc1CN1CCC2(C(=O)N(c3ccc(-c4ccccc4)cc3)C(=O)N2c2cc(O)ncn2)C(C(=O)O)C1 (stereo unspecified),3.6 h,4.3%,0.34 L/kg,63 nM,1.2 mL/min/kg,Cmax [9]: 300 nM; Vdss (Mus musculus [10]): 0.4 L/kg; bioavailability [11]: 7.1%; t1/2 (Mus musculus [16]): 2.1 h
Cc1cc(C(=O)O)ccc1-c1ccc(N2C(=O)N(c3ccncn3)C3(CCN(Cc4ncccc4C)CC3)C2=O)cc1,1.1 h,47%,1.9 L/kg,390 nM,34 mL/min/kg,–
Cc1cc(C(=O)O)ccc1-c1ccc(N2C(=O)N(c3cnccn3)C3(CCN(Cc4ncccc4C)CC3)C2=O)cc1,1.5 h,29%,1.6 L/kg,390 nM,22 mL/min/kg,–
Cc1cccnc1CN1CCC2(CC1)C(=O)N(c1ccc(-c3ccccc3)cc1)C(=O)N2c1nccc(O)n1,1.1 h,66%,0.72 L/kg,990 nM,9 mL/min/kg,Vd [17]: 1.1 L/kg; Cmax [9]: 990 nM; clearance [18]: 1.3 mL/min/kg; half-life [19]: 13 h; Vdss (Mus musculus [10]): 1.3 L/kg; AUC [4]: 3.7 µM·h; bioavailability [11]: 78%; AUC [20]: 1.4 µM·h; CL/F [12]: 13 mL/min/kg; AUC [21]: 41 µM·h; Cmax [22]: 1500 nM; bioavailability [23]: 26%; half-life [13]: 1.4 h
Cc1cccnc1CN1CCC2(CC1)C(=O)N(c1ccc(-c3ccccc3)cc1)C(=O)N2c1ccc(O)nn1,1.2 h,58%,1.1 L/kg,300 nM,40 mL/min/kg,–
Cc1cccnc1CN1CCC2(NC(=O)N(c3ccc(-c4ccccc4)cc3)C2=O)C(C(=O)O)C1 (stereo unspecified),1.1 h,14%,0.58 L/kg,40 nM,11 mL/min/kg,AUC [4]: 3.2 µM·h
Cc1cccnc1CN1CCC2(CC1)C(=O)N(c1ccc(-c3ccc(C(=O)O)cc3)cc1)C(=O)N2c1ccncn1,2.2 h,8%,2 L/kg,580 nM,16 mL/min/kg,–
Cc1cccnc1CN1CCC2(CC1)C(=O)N(c1ccc(-c3ccccc3)cc1)C(=O)N2c1cc(O)ccn1,0.5 h,49%,1.4 L/kg,340 nM,35 mL/min/kg,–
Cc1cccnc1CN1CCC2(CC1)C(=O)N(c1ccc(-c3ccccc3)cc1)C(=O)N2c1ncccn1,1.1 h,18%,2.1 L/kg,101 nM,51 mL/min/kg,–
